Test results from ChEMBL document CHEMBL5543168, “Discovery of Urea Derivatives of Celastrol as Selective Peroxiredoxin 1 Inhibitors against Colorectal Cancer Cells” (J Med Chem, 2024).
Calls of active or inactive are those of the source. The rule behind the calls is not given here.

Experiments:
SW-620 [1] = assay: Inhibition of cell viability in human SW620 cells incubated for 72 hrs by Cell Titer Glo assay; assay type: functional, cell-based; conditions: SW-620, 72 h
SW-620 [2] = assay: Induction of DNA damage in human SW620 cells assessed as increase in gamma-H2AX level incubated for 48 hrs by Western blot analysis; assay type: functional, cell-based; conditions: dose 0.25-2 µM
SW-620 [3] = assay: Induction of cell cycle arrest at S phase in human SW620 cells at 0.5 uM incubated for 24 hrs by PI staining based flow cytometry (reference value: 59.9 %); assay type: functional
SW-620 [4] = assay: Induction of mitochondrial membrane potential depolarization in human SW620 cells assessed as decrease in fluorescence intensity ratio of JC1-stained aggregates to monomers incubated for 48 hrs by CLSM analysis; assay type: functional, cell-based; conditions: dose 0.5-2 µM
Peroxiredoxin-2 = target: T1, Peroxiredoxin-2 (Homo sapiens, UniProt P32119); assay: Inhibition of recombinant PRDX2 (unknown origin) using H2O2 as substrate preincubated for 0.5 hrs followed by substrate addition by TRX-TrxR-NADPH coupling assay
T1 sequence (P32119 whole entry): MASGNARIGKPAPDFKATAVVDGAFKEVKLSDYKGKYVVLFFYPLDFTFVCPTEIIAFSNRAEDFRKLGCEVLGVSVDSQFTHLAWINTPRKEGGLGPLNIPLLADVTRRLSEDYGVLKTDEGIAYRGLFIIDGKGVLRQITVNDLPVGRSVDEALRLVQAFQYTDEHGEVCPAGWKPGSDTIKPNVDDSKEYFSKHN

SW-620 [5] = assay: Induction of mitochondrial membrane potential depolarization in human SW620 cells assessed as reduction in red fluorescence incubated for 48 hrs by JC1-staining based CLSM analysis; assay type: functional, cell-based; conditions: dose 0.5-2 µM
[6] = target: T2, Peroxiredoxin-5, mitochondrial (Homo sapiens, UniProt P30044); assay: Inhibition of recombinant PRDX5 (unknown origin) using H2O2 as substrate preincubated for 0.5 hrs followed by substrate addition by TRX-TrxR-NADPH coupling assay
T2 sequence (P30044 whole entry): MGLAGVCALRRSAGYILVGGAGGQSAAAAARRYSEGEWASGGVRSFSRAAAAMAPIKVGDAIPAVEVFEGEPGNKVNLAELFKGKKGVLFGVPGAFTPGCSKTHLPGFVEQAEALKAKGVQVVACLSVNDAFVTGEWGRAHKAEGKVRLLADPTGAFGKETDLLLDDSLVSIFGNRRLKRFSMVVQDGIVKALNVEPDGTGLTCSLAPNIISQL

Peroxiredoxin-4 = target: T3, Peroxiredoxin-4 (Homo sapiens, UniProt Q13162); assay: Inhibition of recombinant PRDX4 (unknown origin) using H2O2 as substrate preincubated for 0.5 hrs followed by substrate addition by TRX-TrxR-NADPH coupling assay
T3 sequence (Q13162 whole entry): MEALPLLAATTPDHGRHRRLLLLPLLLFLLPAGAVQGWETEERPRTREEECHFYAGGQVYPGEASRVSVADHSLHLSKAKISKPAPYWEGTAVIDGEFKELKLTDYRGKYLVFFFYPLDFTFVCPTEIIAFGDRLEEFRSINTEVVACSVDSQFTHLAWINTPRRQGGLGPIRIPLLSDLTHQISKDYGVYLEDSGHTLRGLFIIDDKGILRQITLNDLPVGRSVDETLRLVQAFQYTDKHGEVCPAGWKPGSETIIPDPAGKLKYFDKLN

[7] = Selectivity ratio of IC50 for HEK293T cells to IC50 for human SW620 cells; assay type: functional
[8] = Acute toxicity in C57BL/[…] 6J mouse assessed as animal death at 20 mg/kg, ip measured for 2 weeks; assay type: organism-based; conditions: in vivo, 336 h
[9] = Half life in mouse at 2 mg/kg, iv measured for 24 hrs by LC-MS/MS analysis; assay type: ADME, organism-based; conditions: in vivo
[10] = Antiproliferative activity against HEK293T cells; assay type: toxicity, cell-based, HEK-293T; conditions: human
[11] = Clearance in mouse at 2 mg/kg, iv measured for 24 hrs by LC-MS/MS analysis; assay type: ADME, organism-based; conditions: in vivo
SW-620 [12] = assay: cells; conditions: Homo sapiens, SW-620, 48 h, read-out: Activity
Description: Induction of apoptosis in human SW620 cells assessed as viable cells at 0.5 uM incubated for 48 hrs by Annexin V-FITC/PI staining based flow cytometry (Rvb = 90.7 %)

SW-620 [13] = assay: Induction of cell cycle arrest at G1 phase in human SW620 cells at 1 uM incubated for 24 hrs by PI staining based flow cytometry (reference value: 32.4 %); assay type: functional
SW-620 [14] = assay: Antitumor activity against human SW620 cells xenografted in BALB/c nude mouse assessed as morphological change in vacuoles in tumor cells at 2 mg/kg, ip qd for 16 days by H and E staining based analysis; assay type: functional, organism-based; conditions: time 16.0 day
SW-620 [15] = assay: Induction of cell cycle arrest at G1 phase in human SW620 cells at 2 uM incubated for 24 hrs by PI staining based flow cytometry (reference value: 32.4 %); assay type: functional
[16] = Selectivity ratio of IC50 for mouse […] cells to IC50 for human SW620 cells; assay type: functional
SW-620 [17] = assay: cells; conditions: Homo sapiens, SW-620, 48 h, read-out: Activity; remark: listed apart in the source
Description: Induction of apoptosis in human SW620 cells assessed as viable cells at 1 uM incubated for 48 hrs by Annexin V-FITC/PI staining based flow cytometry (Rvb = 90.7 %)

SW-620 [18] = assay: Induction of apoptosis in human SW620 cells assessed as decrease in Bcl-xl level incubated for 48 hrs by Western blot analysis; assay type: functional, cell-based; conditions: dose 0.25-2 µM
SW-620 [19] = assay: Induction of cell cycle arrest at G2 phase in human SW620 cells at 1 uM incubated for 24 hrs by PI staining based flow cytometry (reference value: 6.77 %); assay type: functional
SW-620 [20] = assay: Induction of mitochondrial membrane potential depolarization in human SW620 cells assessed as decrease in JC-1-stained red cells incubated for 48 hrs by flow cytometry; assay type: functional, cell-based; conditions: dose 0.5-2 µM
[21] = Acute toxicity in C57BL/[…] 6J mouse assessed as body weight loss at 20 mg/kg, ip measured for 2 weeks; assay type: organism-based; conditions: in vivo, 336 h
SW-620 [22] = assay: Induction of mitochondrial membrane potential depolarization in human SW620 cells assessed as change in morphological characteristics at 0.5 to 2 uM incubated for 48 hrs by bright-field microscopy; assay type: functional, cell-based; conditions: dose 0.5-2 µM
[23] = target: T4, Peroxiredoxin-1 (Homo sapiens) (UniProt Q06830)
T4 sequence (whole entry): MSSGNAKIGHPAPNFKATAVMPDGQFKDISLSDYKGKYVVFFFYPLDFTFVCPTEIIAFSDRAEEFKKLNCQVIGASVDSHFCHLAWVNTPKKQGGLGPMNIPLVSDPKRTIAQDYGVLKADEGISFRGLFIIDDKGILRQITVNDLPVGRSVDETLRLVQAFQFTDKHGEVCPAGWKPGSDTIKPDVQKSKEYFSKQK
Description: Binding affinity to recombinant PRDX1 (unknown origin)assessed as change in melting temperature by protein thermal shift assay

HCT-116 = assay: Inhibition of cell viability in human HCT-116 cells incubated for 72 hrs by Cell Titer Glo assay; assay type: functional, cell-based; conditions: HCT-116, 72 h
SW-620 [24] = assay: Antitumor activity against human SW620 cells xenografted in BALB/c nude mouse assessed as decrease in Ki-67 level at 2 mg/kg, ip qd for 16 days by IHC analysis; assay type: functional, organism-based; conditions: time 16.0 day
SW-620 [25] = assay: Induction of mitochondrial membrane potential depolarization in human SW620 cells assessed as JC-1-stained green cells upto 2 uM incubated for 48 hrs by flow cytometry (reference value: 8.9 %); assay type: functional; conditions: up to 2 µM
SW-620 [26] = assay: Induction of mitochondrial membrane potential depolarization in human SW620 cells assessed as increase in JC-1-stained green cells at 0.5 to 2 uM incubated for 48 hrs by flow cytometry; assay type: functional, cell-based; conditions: dose 0.5-2 µM
[27] = Selectivity ratio of IC50 for human LX2 cells to IC50 for human HCT-116 cells; assay type: functional

Question: Which IC50 (SW-620 [1]) does the source give for COC(=O)C1(NC(=O)N[C@]2(C)CC[C@]3(C)CC[C@]4(C)C5=CC=C6C(=CC(=O)C(O)=C6C)[C@]5(C)CC[C@@]4(C)[C@@H]3C2)CCC1 here?
Answer: Its IC50 is 320 nM.

Question: And the Activity (SW-620 [2])?
Answer: Its Activity is “Dose-Dependent Effect”.

Question: And the Activity (SW-620 [3])?
Answer: The Activity was 57.3%.

Question: What about the Activity (SW-620 [4]) of the same molecule?
Answer: Its Activity is “Dose-Dependent Effect”.

Question: And the IC50 (Peroxiredoxin-2)?
Answer: The IC50 was greater than 50000 nM.

Question: And the Activity (SW-620 [5])?
Answer: Its Activity is “Dose-Dependent Effect”.

Question: And the IC50 [6]?
Answer: The IC50 was greater than 50000 nM.

Question: What about the IC50 (Peroxiredoxin-4) of the same molecule?
Answer: Its IC50 is greater than 50000 nM.

Question: What about the Selectivity ratio [7] of the same molecule?
Answer: Its Selectivity ratio is 2.

Question: And the Activity [8]?
Answer: The Activity was “Non-Toxic”.

Question: What about the half-life [9] of the same molecule?
Answer: Its half-life is 8.46 h.

Question: And the IC50 [10]?
Answer: Its IC50 is roughly 1000 nM.

Question: What about the clearance [11] of the same molecule?
Answer: The clearance was 83.1 mL/min/kg.

Question: And the viability at 0.5 µM (SW-620 [12])?
Answer: Its viability at 0.5 µM is 88.5%.

Question: And the Activity (SW-620 [13])?
Answer: Its Activity is 39.7%.

Question: And the Activity (SW-620 [14])?
Answer: The Activity was “Active”.

Question: What about the Activity (SW-620 [15]) of the same molecule?
Answer: Its Activity is 29.2%.

Question: What about the Selectivity ratio [16] of the same molecule?
Answer: Its Selectivity ratio is 2.

Question: And the viability at 1 µM (SW-620 [17])?
Answer: The viability at 1 µM was 78.8%.

Question: And the Activity (SW-620 [18])?
Answer: Its Activity is “Dose-Dependent Effect”.

Question: And the Activity (SW-620 [19])?
Answer: The Activity was 14.6%.

Question: And the Activity (SW-620 [20])?
Answer: Its Activity is “Dose-Dependent Effect”.

Question: What about the Activity [21] of the same molecule?
Answer: Its Activity is “Non-Toxic”.

Question: And the Activity (SW-620 [22])?
Answer: The Activity was “Active”.

Question: What about the ΔTm [23] of the same molecule?
Answer: Its ΔTm is -7.5 °C.

Question: And the IC50 (HCT-116)?
Answer: Its IC50 is 440 nM.

Question: And the Activity (SW-620 [24])?
Answer: Its Activity is “Active”.

Question: And the Activity (SW-620 [25])?
Answer: The Activity was 54.6%.

Question: And the Activity (SW-620 [26])?
Answer: Its Activity is “Active”.

Question: And the Selectivity ratio [27]?
Answer: Its Selectivity ratio is 2.
